# Experimental data: patent US20250099448A1, “HETEROCYCLIC COMPOUNDS” (Hoffmann-La Roche Inc., priority 2022, published 2025)
# Target: T1, MAGL protein (Homo sapiens, UniProt Q99685)
# T1 sequence (Q99685 1-303): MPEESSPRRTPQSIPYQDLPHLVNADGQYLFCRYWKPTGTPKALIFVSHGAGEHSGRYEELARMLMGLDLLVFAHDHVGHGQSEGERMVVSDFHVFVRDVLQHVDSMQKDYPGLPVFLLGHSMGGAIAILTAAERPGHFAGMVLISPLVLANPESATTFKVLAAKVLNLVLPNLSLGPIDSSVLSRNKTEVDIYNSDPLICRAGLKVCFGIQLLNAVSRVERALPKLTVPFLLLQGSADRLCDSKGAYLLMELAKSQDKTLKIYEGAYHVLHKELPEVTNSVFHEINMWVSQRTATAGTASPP
# Assay: 2-AG assay: MAGL inhibitory activity by hydrolysis of 2-arachidonoylglycerol to arachidonic acid, followed by mass spectrometry
# Format: biochemical
# Conditions: 8 μM 2-arachidonoylglycerol, 15 min preincubation, 30 min reaction at RT, RapidFire MS readout
# Method in brief: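 Activity was measured by RapidFire SPE–triple-quad MS as the ratio of arachidonic acid to d8-arachidonic acid after 2-AG hydrolysis (8 μM substrate, 30 min, RT, acetonitrile quench). Compounds, tested from 12.5 μM down to […], were first preincubated 15 min with MAGL in TRIS/EDTA/Tween-20 buffer containing 2.5% DMSO.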
row,Compound,IC50
1,O=C(N1CC2(CC(Cc3cnn(C(F)(F)F)c3)C2)C1)N1CC2(CC(c3nc(C4(O)CC4)n[nH]3)C2)C1 [compound 727],2.68 nM
2,O=C(N1CC2(CC(Cc3cccc(S(=O)(=O)C(F)(F)F)c3)C2)C1)N1CC2(CC(c3nc(C4COC4)n[nH]3)C2)C1 [compound 728],4.19 nM
3,Cn1ncc(CC2CC3(C2)CN(C(=O)N2CC4(CC(c5nc(C6CC6)n[nH]5)C4)C2)C3)c1C(F)(F)F [compound 729],0.09 nM
4,N=S(=O)(c1ccc(OC2CC3(C2)CN(C(=O)N2CC4(CC(c5nc(C6CC6)n[nH]5)C4)C2)C3)cc1)C(F)(F)F (stereo not drawn) [compound 730],2.01 nM
5,O=C(N1CC2(CC(Cc3cncc(S(=O)(=O)C(F)(F)F)c3)C2)C1)N1CC2(CC(c3nc(C4CC4)n[nH]3)C2)C1 [compound 731],0.18 nM
6,O=C(N1CC2(CCN(Cc3nc(C(F)(F)F)cs3)CC2)C1)N1CC2(CC(c3nc(C4CC4)n[nH]3)C2)C1 [compound 732],6.18 nM
7,O=C(N1CC2(CC(c3nc(C4CC4)n[nH]3)C2)C1)N1CC2(CN(Cc3nc(CC4CC4)no3)C2)C1 [compound 733],29.5 nM
8,N=S(=O)(c1cccc(CC2CC3(C2)CN(C(=O)N2CC4(CC(c5ncn[nH]5)C4)C2)C3)c1)C(F)(F)F (stereo not drawn) [compound 734],568 nM
9,O=C(N1CC(C23CC(Oc4ccc(C(F)(F)F)cn4)(C2)C3)C1)N1CC2(CC(c3nc(C4CC4)n[nH]3)C2)C1 [compound 736],1.65 nM
10,O=C(N1CC2(CC(Cc3ncc(Cl)cc3F)C2)C1)N1CC2(CC(c3nc(C4CC(F)(F)C4)n[nH]3)C2)C1 [compound 737],12 nM
11,O=C(N1CC2(CC(Cc3nnc(C4(C(F)(F)F)CC4)o3)C2)C1)N1CC2(CC(c3nc(C4CC(F)(F)C4)n[nH]3)C2)C1 [compound 738],328 nM
12,N=S(=O)(c1ccc(CC2CC3(C2)CN(C(=O)N2CC4(CC(c5nc(C6CC6)n[nH]5)C4)C2)C3)nc1)C(F)(F)F (stereo not drawn) [compound 739],1.26 nM
13,CC(C)(C)c1csc(CN2CC3(C2)CN(C(=O)N2CC4(CC(c5nc(C6CC6)n[nH]5)C4)C2)C3)n1 [compound 740],1.32 nM
14,O=C(N1CC2(CC(c3nc(C4(O)CC4)n[nH]3)C2)C1)N1CC2(CC[C@H](Cc3cccc(S(=O)(=O)C(F)(F)F)c3)C2)C1 [compound 741],0.15 nM
15,O=C(N1CC2(CC(Cc3cc(F)cc(C(F)(F)F)c3)C2)C1)N1CC2(CC(c3nc(C4COC4)n[nH]3)C2)C1 [compound 742],2.18 nM
16,CC(F)(F)c1noc(CN2CC3(C2)CN(C(=O)N2CC4(CC(c5nc(C6CC6)n[nH]5)C4)C2)C3)n1 [compound 743],13.2 nM
17,Cn1nc(CC2CC3(C2)CN(C(=O)N2CC4(CC(c5nc(C6COC6)n[nH]5)C4)C2)C3)cc1C(F)(F)F [compound 744],13.6 nM

row,Compound,IC50
1,N=S(=O)(c1ccc(C2CN(C(=O)N3CC4(CC(c5nc(C6CC6)n[nH]5)C4)C3)C2)cc1)C1CC1 (stereo not drawn) [compound 745],6.37 nM
2,O=C(N1CC2(CC(c3nc(C4CC4)n[nH]3)C2)C1)N1CC2(CC(n3cnc(C4CC4)n3)C2)C1 [compound 746],8.64 nM
3,O=C(N1CC2(CC(Cc3n[nH]cc3C(F)(F)F)C2)C1)N1CC2(CC(c3nc(C4CC4)n[nH]3)C2)C1 [compound 747],0.09 nM
4,O=C(N1CC2(CC(Cc3cncc(C(F)(F)F)c3)C2)C1)N1CC2(CC(c3nc(C4COC4)n[nH]3)C2)C1 [compound 748],37.2 nM
5,N#Cc1cc(CC2CC3(C2)CN(C(=O)N2CC4(CC(c5nc(C6(O)CC6)n[nH]5)C4)C2)C3)cc(C(F)(F)F)c1 [compound 749],0.25 nM
6,O=C(N1CC2(CC(c3nc(C4CC(F)(F)C4)n[nH]3)C2)C1)N1CC2(CN(Cc3cnc(C(F)(F)F)cn3)C2)C1 [compound 750],445 nM
7,CC(C)c1cc(C(C)C)n(-c2ccc(C3CN(C(=O)N4CC5(CC(c6nc(C7(O)CC7)n[nH]6)C5)C4)C3)cc2)n1 [compound 751],0.66 nM
8,N#Cc1ccc(CC2CC3(C2)CN(C(=O)N2CC4(CC(c5nc(C6(O)CC6)n[nH]5)C4)C2)C3)c(F)c1 [compound 752],0.29 nM
9,CS(=O)(=O)c1cc(CC2CC3(C2)CN(C(=O)N2CC4(CC(c5ncn[nH]5)C4)C2)C3)ccc1C(F)(F)F [compound 753],1490 nM
10,O=C(N1CC2(CC(Cc3ccc(F)cc3C(F)(F)F)C2)C1)N1CC2(CC(c3nc(C4COC4)n[nH]3)C2)C1 [compound 754],0.43 nM
11,O=C(N1CC2(CC(Cc3ccc(S(=O)(=O)C(F)(F)F)cc3)C2)C1)N1CC2(CC(c3nc(C4COC4)n[nH]3)C2)C1 [compound 755],0.61 nM
12,O=C(N1CC2(CCC(Cc3ccc(Cl)cn3)CC2)C1)N1CC2(CC(c3nc(C4CC(F)(F)C4)n[nH]3)C2)C1 [compound 756],98.5 nM
13,O=C(N1CC2(CC(Cn3cc(OC(F)(F)F)ccc3=O)C2)C1)N1CC2(CC(c3nc(C4CC4)n[nH]3)C2)C1 [compound 757],3.77 nM
14,O=C(N1CC2(CC(c3nc(C4CC(F)(F)C4)n[nH]3)C2)C1)N1CC2(CN(Cc3cc(C(F)(F)F)no3)C2)C1 [compound 758],145 nM
15,N#Cc1cc(CC2CC3(C2)CN(C(=O)N2CC4(CC(c5nc(C6COC6)n[nH]5)C4)C2)C3)cc(C(F)(F)F)c1 [compound 759],11 nM
16,O=C(N1CC(C23CC(c4cncc(F)c4)(C2)C3)C1)N1CC2(CC(c3nc(C4CC4)n[nH]3)C2)C1 [compound 760],6.09 nM

# Next, values leading:
row,IC50,Compound
1,147 nM,O=C(N1CC2(CC(Cc3cnc(C(F)(F)F)cn3)C2)C1)N1CC2(CC(c3nc(C4COC4)n[nH]3)C2)C1 [compound 761]
2,35.7 nM,CCc1nsc(CN2CC3(C2)CN(C(=O)N2CC4(CC(c5nc(C6CC6)n[nH]5)C4)C2)C3)n1 [compound 762]
3,27.1 nM,O=C(N1CC2(CC(c3nc(C4CC4)n[nH]3)C2)C1)N1CC2(CN(Cc3coc(C(F)(F)F)n3)C2)C1 [compound 763]
4,1.08 nM,O=C(N1CC2(CC(Cc3cnn(CC(F)(F)F)c3)C2)C1)N1CC2(CC(c3nc(C4CC4)n[nH]3)C2)C1 [compound 764]
5,4.49 nM,O=C(N1CC2(CC(Cc3cnn(CC(F)(F)F)c3)C2)C1)N1CC2(CC(c3nc(C4(O)CC4)n[nH]3)C2)C1 [compound 765]
6,2.83 nM,O=C(N1CC2(CC(Cn3ccc(C(F)(F)F)cc3=O)C2)C1)N1CC2(CC(c3nc(C4CC4)n[nH]3)C2)C1 [compound 766]
7,4.07 nM,CCNC(=O)c1cc(Cl)ccc1C12CC(C3CN(C(=O)N4CC5(CC(c6nnc(C7CC7)[nH]6)C5)C4)C3)(C1)C2 [compound 767]
8,0.08 nM,O=C(N1CC2(CC(Cc3ccc(C(F)(F)F)cc3F)C2)C1)N1CC2(CC(c3nc(C4COC4)n[nH]3)C2)C1 [compound 768]
9,11.8 nM,O=C(N1CC2(CC(Cc3ccc(OC(F)(F)F)nc3)C2)C1)N1CC2(CC(c3nc(C4COC4)n[nH]3)C2)C1 [compound 769]
10,0.23 nM,Cn1cc(CC2CC3(C2)CN(C(=O)N2CC4(CC(c5nc(C6CC6)n[nH]5)C4)C2)C3)c(C(F)(F)F)n1 [compound 770]
11,7.02 nM,N#Cc1ccc(CC2CC3(C2)CN(C(=O)N2CC4(CC(c5nc(C6COC6)n[nH]5)C4)C2)C3)cc1C(F)(F)F [compound 771]
12,0.05 nM,N#Cc1ccc(CC2CC3(C2)CN(C(=O)N2CC4(CC(c5nc(C6CC6)n[nH]5)C4)C2)C3)c(F)c1 [compound 772]
13,1.31 nM,O=C(N1CC(C23CC(c4ccc(F)cc4)(C2)C3)C1)N1CC2(CC(c3nc(C4CC4)n[nH]3)C2)C1 [compound 773]
14,7.94 nM,Cn1ncc(CC2CC3(C2)CN(C(=O)N2CC4(CC(c5nc(C6COC6)n[nH]5)C4)C2)C3)c1C(F)(F)F [compound 774]
15,2.01 nM,Cn1nc(C(F)(F)F)cc1CC1CC2(C1)CN(C(=O)N1CC3(CC(c4nc(C5(O)CC5)n[nH]4)C3)C1)C2 [compound 775]
16,5.9 nM,CS(=O)(=O)C1(c2ccc(C3CN(C(=O)N4CC5(CC(c6nc(C7CC7)n[nH]6)C5)C4)C3)cc2)CC1 [compound 776]
17,1.27 nM,Cn1ncc(C(F)(F)F)c1CC1CC2(C1)CN(C(=O)N1CC3(CC(c4nc(C5(O)CC5)n[nH]4)C3)C1)C2 [compound 777]
18,0.99 nM,N#Cc1cc(CC2CC3(C2)CN(C(=O)N2CC4(CC(c5nnc(C6CC6)[nH]5)C4)C2)C3)cc(C(F)(F)F)n1 [compound 778]
19,8.36 nM,O=C(N1CC2(CCC(Cc3nnc(C(F)(F)F)o3)CC2)C1)N1CC2(CC(c3nc(C4CC4)n[nH]3)C2)C1 [compound 779]
20,3.37 nM,O=C(N1CC2(CC(c3nc(C4CC4)n[nH]3)C2)C1)N1CC2(CN(Cc3nc(C(F)(F)F)cs3)C2)C1 [compound 780]
21,17.8 nM,N=S(=O)(c1ccc(CC2CC3(C2)CN(C(=O)N2CC4(CC(c5nc(C6COC6)n[nH]5)C4)C2)C3)cc1)C(F)(F)F (stereo not drawn) [compound 782]
22,33.7 nM,O=C(N1CC2(CC(Cc3nc(C(F)(F)F)cs3)C2)C1)N1CC2(CC(c3nc(C4COC4)n[nH]3)C2)C1 [compound 783]
23,5.18 nM,O=C(N1CC2(CC(c3nc(C4CC4)n[nH]3)C2)C1)N1CC2(CN(Cc3cnc(C(F)(F)F)s3)C2)C1 [compound 784]
24,0.39 nM,Cn1nc(C(F)(F)F)cc1CC1CC2(C1)CN(C(=O)N1CC3(CC(c4nc(C5CC5)n[nH]4)C3)C1)C2 [compound 785]
25,8.01 nM,CS(=O)(=O)c1ccc(C23CC(C4CN(C(=O)N5CC6(CC(c7nc(C8CC8)n[nH]7)C6)C5)C4)(C2)C3)cc1 [compound 786]
26,1.2 nM,O=C(N1CC2(CC(Cn3cnc(C4(C(F)(F)F)CC4)n3)C2)C1)N1CC2(CC(c3nc(C4CC4)n[nH]3)C2)C1 [compound 787]
27,22.5 nM,O=C(N1CC2(CC(Cc3cnc(C(F)(F)F)cn3)C2)C1)N1CC2(CC(c3nc(C(F)(F)F)n[nH]3)C2)C1 [compound 788]
